Data reported in patent US8614201B2 (Janssen Pharmaceutica NV, priority 2009, dated 2013).

Molecular target: Human TRPA1 (Homo sapiens, UniProt O75762)
Assay: Alternative TRPA1 Ca2+ fluorometry assay (hTRPA1/TREx-HEK293 cells, Fluo-4, FDSS 6000)
Format: cell-based
Set-up: expressed in transfected cells
Details: Fluo-4-AM, agonist 6,11-dihydro-5H-dibenzo[b,e]azepine-10-carboxylic acid methyl ester 25 nM, procedure used for Examples 184, 190 to 192, 194 to 316
Outline: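 Tetracycline-induced (50 ng/ml, 24 h) hTRPA1/TREx-HEK293 cells were loaded with Fluo-4-AM and probenecid. Compound (1% DMSO final) was added after a 12 s baseline and the Ca2+ signal followed for 14 min, then 25 nM TRPA1 agonist dibenzazepine carboxylic acid methyl ester was applied. Signal is Em540 (ex 488 nm) relative to the first baseline reading.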

Chain of Human TRPA1 (O75762 whole entry): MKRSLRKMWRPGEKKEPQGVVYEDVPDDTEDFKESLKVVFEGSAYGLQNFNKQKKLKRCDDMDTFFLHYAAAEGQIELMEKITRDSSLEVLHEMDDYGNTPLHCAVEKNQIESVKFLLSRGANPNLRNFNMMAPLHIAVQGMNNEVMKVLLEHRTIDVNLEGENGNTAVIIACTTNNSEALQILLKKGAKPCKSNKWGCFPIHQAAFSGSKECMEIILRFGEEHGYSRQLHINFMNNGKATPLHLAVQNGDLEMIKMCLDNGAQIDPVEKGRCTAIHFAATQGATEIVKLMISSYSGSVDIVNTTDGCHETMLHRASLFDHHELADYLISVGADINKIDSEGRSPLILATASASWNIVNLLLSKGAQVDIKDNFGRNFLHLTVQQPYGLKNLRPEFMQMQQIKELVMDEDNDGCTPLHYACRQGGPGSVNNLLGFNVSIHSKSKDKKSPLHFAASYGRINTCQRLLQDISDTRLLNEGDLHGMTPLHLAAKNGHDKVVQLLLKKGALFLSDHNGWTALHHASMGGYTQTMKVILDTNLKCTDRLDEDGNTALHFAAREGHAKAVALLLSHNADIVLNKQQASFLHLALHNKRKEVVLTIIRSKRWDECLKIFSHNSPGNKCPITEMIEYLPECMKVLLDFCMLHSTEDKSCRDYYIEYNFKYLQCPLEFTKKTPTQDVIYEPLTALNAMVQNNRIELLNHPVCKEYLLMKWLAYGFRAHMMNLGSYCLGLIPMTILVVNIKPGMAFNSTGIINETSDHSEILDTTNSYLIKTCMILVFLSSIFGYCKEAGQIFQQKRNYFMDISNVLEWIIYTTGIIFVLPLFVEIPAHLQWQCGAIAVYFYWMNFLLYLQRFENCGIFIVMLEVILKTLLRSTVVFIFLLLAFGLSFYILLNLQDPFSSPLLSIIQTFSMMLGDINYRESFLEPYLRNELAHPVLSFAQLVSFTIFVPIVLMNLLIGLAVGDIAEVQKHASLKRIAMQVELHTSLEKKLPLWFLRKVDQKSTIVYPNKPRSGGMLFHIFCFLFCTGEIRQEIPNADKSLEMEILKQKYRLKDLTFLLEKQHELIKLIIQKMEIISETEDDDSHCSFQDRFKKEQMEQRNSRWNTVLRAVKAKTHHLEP

SMILES | IC50 [nM]
O=C(NCc1cc(-c2ccc(C(F)(F)F)cc2)nc(N2CCN(Cc3ccc4c(c3)OCO4)CC2)n1)[C@@H]1CCCN1S(=O)(=O)c1ccc(F)cc1 [Example 297, 1-(4-Fluoro-benzenesulfonyl)-pyrrolidine-2S-carboxylic acid [2-(4-benzo[1,3]dioxol-5-ylmethyl-piperazin-1-yl)-6-(4-trifluoromethyl-phenyl)-pyrimidin-4-ylmethyl]-amide] | 355
NC(=O)C1CCCN(c2nc(CNC(=O)[C@@H]3CCCN3S(=O)(=O)c3ccc(F)cc3)cc(-c3ccc(C(F)(F)F)cc3)n2)C1 (stereo partly drawn) [Example 298, 1-[4-({[1-(4-Fluoro-benzenesulfonyl)-pyrrolidine-2S-carbonyl]-amino}-methyl)-6-(4-trifluoromethyl-phenyl)-pyrimidin-2-yl]-piperidine-3-carboxylic acid amide] | 4680
O=C(NCc1cc(-c2ccc(C(F)(F)F)cc2)nc(NCCC2C=Nc3ccccc32)n1)[C@@H]1CCCN1S(=O)(=O)c1ccc(F)cc1 (stereo partly drawn) [Example 299, 1-(4-Fluoro-benzenesulfonyl)-pyrrolidine-2S-carboxylic acid [2-[2-(3H-indol-3-yl)-ethylamino]-6-(4-trifluoromethyl-phenyl)-pyrimidin-4-ylmethyl]-amide] | ~1590
O=C(NCc1cc(-c2ccc(Br)cc2)nc(N2CCN(c3ccc(F)cc3)CC2)n1)[C@@H]1CCCN1S(=O)(=O)c1ccc(F)cc1 [Example 300, 1-(4-Fluoro-benzenesulfonyl)-pyrrolidine-2S-carboxylic acid {6-(4-bromo-phenyl)-2-[4-(4-fluoro-phenyl)-piperazin-1-yl]-pyrimidin-4-ylmethyl}-amide] | 2510
NS(=O)(=O)c1ccc(CCNc2nc(CNC(=O)[C@@H]3CCCN3S(=O)(=O)c3ccc(F)cc3)cc(-c3ccc(Br)cc3)n2)cc1 [Example 301, 1-(4-Fluoro-benzenesulfonyl)-pyrrolidine-2S-carboxylic acid {6-(4-bromo-phenyl)-2-[2-(4-sulfamoyl-phenyl)-ethylamino]-pyrimidin-4-ylmethyl}-amide] | 5620
O=C(NCc1cc(-c2ccc(Br)cc2)nc(N2CCC[C@H]2CO)n1)[C@@H]1CCCN1S(=O)(=O)c1ccc(F)cc1 [Example 302, 1-(4-Fluoro-benzenesulfonyl)-pyrrolidine-2S-carboxylic acid [6-(4-bromo-phenyl)-2-(2S-hydroxymethyl-pyrrolidin-1-yl)-pyrimidin-4-ylmethyl]-amide] | 8710
O=C(NCc1cc(-c2ccc(C(F)(F)F)cc2)nc(N2CCc3ccccc3C2)n1)[C@@H]1CCCN1S(=O)(=O)c1ccc(F)cc1 [Example 303, 1-(4-Fluoro-benzenesulfonyl)-pyrrolidine-2S-carboxylic acid [2-(3,4-dihydro-1H-isoquinolin-2-yl)-6-(4-trifluoromethyl-phenyl)-pyrimidin-4-ylmethyl]-amide] | ~2820
O=C(NCc1cc(-c2ccc(C(F)(F)F)cc2)nc(N2CCN(c3ccc(F)cc3)CC2)n1)[C@@H]1CCCN1S(=O)(=O)c1ccc(F)cc1 [Example 304, 1-(4-Fluoro-benzenesulfonyl)-pyrrolidine-2S-carboxylic acid [2-[4-(4-fluoro-phenyl)-piperazin-1-yl]-6-(4-trifluoromethyl-phenyl)-pyrimidin-4-ylmethyl]-amide] | 331
O=C(NCc1cc(-c2ccc3c(c2)OCO3)nc(N2CCN(Cc3ccc4c(c3)OCO4)CC2)n1)[C@@H]1CCCN1S(=O)(=O)c1ccc(F)cc1 [Example 305, 1-(4-Fluoro-benzenesulfonyl)-pyrrolidine-2S-carboxylic acid [6-benzo[1,3]dioxol-5-yl-2-(4-benzo[1,3]dioxol-5-ylmethyl-piperazin-1-yl)-pyrimidin-4-ylmethyl]-amide] | ~5890
CC1CCN(c2nc(CNC(=O)[C@@H]3CCCN3S(=O)(=O)c3ccc(F)cc3)cc(-c3ccc4c(c3)OCO4)n2)CC1 [Example 306, 1-(4-Fluoro-benzenesulfonyl)-pyrrolidine-2S-carboxylic acid [6-benzo[1,3]dioxol-5-yl-2-(4-methyl-piperidin-1-yl)-pyrimidin-4-ylmethyl]-amide] | ~2090
O=C(NCc1cc(-c2ccc(C(F)(F)F)cc2)nc(NC2CCc3ccccc32)n1)[C@@H]1CCCN1S(=O)(=O)c1ccc(F)cc1 (stereo partly drawn) [Example 307, 1-(4-Fluoro-benzenesulfonyl)-pyrrolidine-2S-carboxylic acid [2-(indan-1-ylamino)-6-(4-trifluoromethyl-phenyl)-pyrimidin-4-ylmethyl]-amide] | ~354
CC(C)[C@@H](CO)Nc1nc(CNC(=O)[C@@H]2CCCN2S(=O)(=O)c2ccc(F)cc2)cc(-c2ccc(C(F)(F)F)cc2)n1 [Example 308, 1-(4-Fluoro-benzenesulfonyl)-pyrrolidine-2S-carboxylic acid [2-(1-hydroxymethyl-2-methyl-propylamino)-6-(4-trifluoromethyl-phenyl)-pyrimidin-4-ylmethyl]-amide] | 1780
CC(=O)c1ccc(N2CCN(c3nc(CNC(=O)[C@@H]4CCCN4S(=O)(=O)c4ccc(F)cc4)cc(-c4ccc(C(F)(F)F)cc4)n3)CC2)cc1 [Example 309, 1-(4-Fluoro-benzenesulfonyl)-pyrrolidine-2S-carboxylic acid [2-[4-(4-acetyl-phenyl)-piperazin-1-yl]-6-(4-trifluoromethyl-phenyl)-pyrimidin-4-ylmethyl]-amide] | 1170
CCCCNc1nc(CNC(=O)[C@@H]2CCCN2S(=O)(=O)c2ccc(F)cc2)cc(-c2ccc(C(F)(F)F)cc2)n1 [Example 310, 1-(4-Fluoro-benzenesulfonyl)-pyrrolidine-2S-carboxylic acid [2-butylamino-6-(4-trifluoromethyl-phenyl)-pyrimidin-4-ylmethyl]-amide] | 407

Continued, values first:

IC50 [nM] | SMILES
~1510 | CC(Nc1nc(CNC(=O)[C@@H]2CCCN2S(=O)(=O)c2ccc(F)cc2)cc(-c2ccc3c(c2)OCO3)n1)c1ccccc1 (stereo partly drawn) [Example 311, 1-(4-Fluoro-benzenesulfonyl)-pyrrolidine-2S-carboxylic acid [6-benzo[1,3]dioxol-5-yl-2-(1-phenyl-ethylamino)-pyrimidin-4-ylmethyl]-amide]
295 | O=C(NCc1cc(-c2ccc(C(F)(F)F)cc2)nc(NCCc2cccnc2)n1)[C@@H]1CCCN1S(=O)(=O)c1ccc(F)cc1 [Example 312, 1-(4-Fluoro-benzenesulfonyl)-pyrrolidine-2S-carboxylic acid [2-(2-pyridin-3-yl-ethylamino)-6-(4-trifluoromethyl-phenyl)-pyrimidin-4-ylmethyl]-amide]
~489 | CC(Nc1nc(CNC(=O)[C@@H]2CCCN2S(=O)(=O)c2ccc(F)cc2)cc(-c2ccc(C(F)(F)F)cc2)n1)c1ccccc1 (stereo partly drawn) [Example 313, 1-(4-Fluoro-benzenesulfonyl)-pyrrolidine-2S-carboxylic acid [2-(1-phenyl-ethylamino)-6-(4-trifluoromethyl-phenyl)-pyrimidin-4-ylmethyl]-amide]
~1320 | CN1CCN(c2nc(CNC(=O)[C@@H]3CCCN3S(=O)(=O)c3ccc(F)cc3)cc(-c3ccc(C(F)(F)F)cc3)n2)CC1 [Example 314, 1-(4-Fluoro-benzenesulfonyl)-pyrrolidine-2-carboxylic acid [2-(4-methyl-piperazin-1-yl)-6-(4-trifluoromethyl-phenyl)-pyrimidin-4-ylmethyl]-amide]
~450 | O=C(NCc1cc(-c2ccc(C(F)(F)F)cc2)nc(NCCN2CCOCC2)n1)[C@@H]1CCCN1S(=O)(=O)c1ccc(F)cc1 [Example 315, 1-(4-Fluoro-benzenesulfonyl)-pyrrolidine-2S-carboxylic acid [2-(2-morpholin-4-yl-ethylamino)-6-(4-trifluoromethyl-phenyl)-pyrimidin-4-ylmethyl]-amide]
1450 | O=C(NCc1cc(-c2ccc(Br)cc2)nc(NCCN2CCOCC2)n1)[C@@H]1CCCN1S(=O)(=O)c1ccc(F)cc1 [Example 316, 1-(4-Fluoro-benzenesulfonyl)-pyrrolidine-2S-carboxylic acid [6-(4-bromo-phenyl)-2-(2-morpholin-4-yl-ethylamino)-pyrimidin-4-ylmethyl]-amide]
